Data taken from ChEMBL document CHEMBL4312012, “Development of a novel hybrid antimicrobial peptide for targeted killing of Pseudomonas aeruginosa” (Eur J Med Chem, 2020).
Active and inactive are the calls of the source. The calls are words filed in the database; no cut-off is given here. Peptide text beside a SMILES is read from it.

Assays:
[1] = biological target: T1, Outer membrane porin F (Pseudomonas aeruginosa (strain ATCC 15692 / DSM 22644 / CIP 104116 / JCM14847 / LMG 12228 / 1C / PRS 101 / PAO1)) (UniProt P13794); test: Binding affinity to recombinant Pseudomonas aeruginosa OprF expressed in Escherichia coli BL21 (DE3) at 10 uM incubated for 1 hr by ELISA
T1 sequence (whole entry): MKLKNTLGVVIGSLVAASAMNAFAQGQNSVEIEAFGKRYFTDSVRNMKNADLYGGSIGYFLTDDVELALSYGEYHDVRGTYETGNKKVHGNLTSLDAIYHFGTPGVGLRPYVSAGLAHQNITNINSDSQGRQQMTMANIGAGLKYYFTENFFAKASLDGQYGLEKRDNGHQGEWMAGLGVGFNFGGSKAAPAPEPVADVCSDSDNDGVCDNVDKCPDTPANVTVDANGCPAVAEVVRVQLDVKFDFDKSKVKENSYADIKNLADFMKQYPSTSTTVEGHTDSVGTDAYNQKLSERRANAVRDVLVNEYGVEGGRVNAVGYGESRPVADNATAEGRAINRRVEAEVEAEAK

[2] = biological target: T1, Outer membrane porin F (Pseudomonas aeruginosa (strain ATCC 15692 / DSM 22644 / CIP 104116 / JCM14847 / LMG 12228 / 1C / PRS 101 / PAO1)); test: Binding affinity to OprF in Pseudomonas aeruginosa H103 at 10 uM incubated for 1 hr by ELISA
Staphylococcus aureus [3] = test: Binding affinity to cell surface of Staphylococcus aureus ATCC 15752 at 10 uM incubated for 1 hr by ELISA; type: organism-based
Escherichia coli [4] = test: Binding affinity to cell surface of Escherichia coli KCTC 2223 at 10 uM incubated for 1 hr by ELISA; type: organism-based
Pseudomonas aeruginosa [5] = test: Binding affinity to cell surface of Pseudomonas aeruginosa H103 at 10 uM incubated for 1 hr by ELISA; type: organism-based
Candida albicans [6] = test: Binding affinity to cell surface of Candida albicans ATCC 10231 at 10 uM incubated for 1 hr by ELISA; type: organism-based
Salmonella typhimurium [7] = test: Binding affinity to cell surface of Salmonella typhimurium KCTC 2370 at 10 uM incubated for 1 hr by ELISA; type: organism-based; conditions: Salmonella enterica subsp. enterica serovar Typhimurium
[8] = system: Outer membrane porin F (Pseudomonas aeruginosa (strain ATCC 15692 / DSM 22644 / CIP 104116 / JCM14847 / LMG 12228 / 1C / PRS 101 / PAO1)), P13794 [UNDEFINED MUTATION]; test: Binding affinity to OprF mutant in Pseudomonas aeruginosa H636 at 10 uM incubated for 1 hr by ELISA
Pseudomonas aeruginosa [9] = test: Antibacterial activity against multidrug resistant Pseudomonas aeruginosa H103 infected in BALB/c mouse infected assessed as survival rate at 25 mg/kg, ip measured on day 7; type: functional; conditions: 168 h
Candida albicans [10] = test: Antifungal activity against Candida albicans ATCC 10231 assessed as reduction in fungal cell growth preincubated for 3 hrs followed by medium replenishment further incubated for 18 hrs by serial microdilution method; type: functional
Salmonella typhimurium [11] = test: Binding affinity to cell surface of Salmonella typhimurium KCTC 2370 at 1 uM incubated for 5 mins by confocal laser scanning microscopy; type: organism-based; conditions: Salmonella enterica subsp. enterica serovar Typhimurium
Escherichia coli [12] = test: Binding affinity to cell surface of Escherichia coli KCTC 2223 at 1 uM incubated for 5 mins by confocal laser scanning microscopy; type: organism-based
Pseudomonas aeruginosa [13] = test: Antibacterial activity against multidrug resistant Pseudomonas aeruginosa H103 infected in BALB/c mouse infected assessed as survival rate at 15 mg/kg, ip measured on day 7; type: functional; conditions: 168 h
Staphylococcus aureus [14] = test: Antibacterial activity against Staphylococcus aureus ATCC 15752 assessed as reduction in bacterial cell growth preincubated for 3 hrs followed by medium replenishment further incubated for 18 hrs by serial microdilution method; type: functional
Escherichia coli [15] = test: Antibacterial activity against Escherichia coli KCTC 2223 assessed as reduction in bacterial cell growth preincubated for 3 hrs followed by medium replenishment further incubated for 18 hrs by serial microdilution method; type: functional
[16] = system: Outer membrane porin F (Pseudomonas aeruginosa (strain ATCC 15692 / DSM 22644 / CIP 104116 / JCM14847 / LMG 12228 / 1C / PRS 101 / PAO1)), P13794 [UNDEFINED MUTATION]; test: Binding affinity to OprF mutant in Pseudomonas aeruginosa H636 at 1 uM incubated for 5 mins by confocal laser scanning microscopy
Salmonella typhimurium [17] = test: Antibacterial activity against Salmonella typhimurium KCTC 2370 assessed as reduction in bacterial cell growth preincubated for 3 hrs followed by medium replenishment further incubated for 18 hrs by serial microdilution method; type: functional, Salmonella enterica subsp. enterica serovar Typhimurium; conditions: Salmonella enterica
[18] = biological target: T1, Outer membrane porin F (Pseudomonas aeruginosa (strain ATCC 15692 / DSM 22644 / CIP 104116 / JCM14847 / LMG 12228 / 1C / PRS 101 / PAO1)); test: Binding affinity to OprF in Pseudomonas aeruginosa H103 assessed as binding affinity to bacterial cell surface at 1 uM incubated for 5 mins by confocal laser scanning microscopy
Pseudomonas aeruginosa [19] = test: Antibacterial activity against Pseudomonas aeruginosa assessed as reduction in bacterial cell growth preincubated for 3 hrs followed by medium replenishment further incubated for 18 hrs by serial microdilution method; type: functional
Pseudomonas aeruginosa [20] = test: Antibacterial activity against Pseudomonas aeruginosa assessed as reduction in bacterial cell growth in presence of GNU7 preincubated for 3 hrs followed by medium replenishment further incubated for 18 hrs by serial microdilution method; type: functional
Staphylococcus aureus [21] = test: Antibacterial activity against Staphylococcus aureus ATCC 15752 assessed as reduction in bacterial cell growth in presence of GNU7 preincubated for 3 hrs followed by medium replenishment further incubated for 18 hrs by serial microdilution method; type: functional
Escherichia coli [22] = test: Antibacterial activity against Escherichia coli KCTC 2223 assessed as reduction in bacterial cell growth in presence of GNU7 preincubated for 3 hrs followed by medium replenishment further incubated for 18 hrs by serial microdilution method; type: functional
Salmonella typhimurium [23] = test: Antibacterial activity against Salmonella typhimurium KCTC 2370 assessed as reduction in bacterial cell growth in presence of GNU7 preincubated for 3 hrs followed by medium replenishment further incubated for 18 hrs by serial microdilution method; type: functional, Salmonella enterica subsp. enterica serovar Typhimurium; conditions: Salmonella enterica
Candida albicans [24] = test: Antifungal activity against Candida albicans ATCC 10231 assessed as reduction in fungal cell growth in presence of GNU7 preincubated for 3 hrs followed by medium replenishment further incubated for 18 hrs by serial microdilution method; type: functional
[25] = biological target: T1, Outer membrane porin F (Pseudomonas aeruginosa (strain ATCC 15692 / DSM 22644 / CIP 104116 / JCM14847 / LMG 12228 / 1C / PRS 101 / PAO1)); test: Binding affinity to OprF in Pseudomonas aeruginosa H103 assessed as binding affinity to bacterial cell surface at 10 uM incubated for 1 hr by ELISA
Pseudomonas aeruginosa [26] = test: Antibacterial activity against Pseudomonas aeruginosa H103 co-cultured with Salmonella typhimurium KCTC 2370 assessed as reduction in bacterial load by measuring decrease in colony forming units at 2 uM incubated for 30 mins by time-kill assay; type: functional
Salmonella typhimurium [27] = test: Antibacterial activity against Salmonella typhimurium KCTC 2370 co-cultured with Pseudomonas aeruginosa H103 assessed as reduction in bacterial load by measuring decrease in colony forming units at 2 uM incubated for 30 mins by time-kill assay; type: functional, organism-based; conditions: Salmonella enterica subsp. enterica serovar Typhimurium
Mus musculus [28] = test: In vivo antibacterial activity against multidrug resistant Pseudomonas aeruginosa H103 infected in BALB/c mouse assessed as reduction in bacterial load by measuring decrease in colony forming units in liver at 25 mg/kg, ip measured after 12 hrs; type: functional
Mus musculus [29] = test: In vivo antibacterial activity against multidrug resistant Pseudomonas aeruginosa H103 infected in BALB/c mouse assessed as reduction in bacterial load by measuring decrease in colony forming units in kidney at 25 mg/kg, ip measured after 12 hrs; type: functional
Pseudomonas aeruginosa [30] = test: Antibacterial activity against Pseudomonas aeruginosa H103 co-cultured with Escherichia coli KCTC 2223 assessed as reduction in bacterial load by measuring decrease in colony forming units at 2 uM incubated for 30 mins by time-kill assay; type: functional
Escherichia coli [31] = test: Antibacterial activity against Escherichia coli KCTC 2223 co-cultured with Pseudomonas aeruginosa H103 assessed as reduction in bacterial load by measuring decrease in colony forming units at 2 uM incubated for 30 mins by time-kill assay; type: functional
Mus musculus [32] = test: In vivo antibacterial activity against multidrug resistant Pseudomonas aeruginosa H103 infected in BALB/c mouse assessed as reduction in bacterial load by measuring decrease in colony forming units in spleen at 25 mg/kg, ip measured after 12 hrs; type: functional
Erythrocyte = test: Hemolytic activity in human RBC incubated for 30 mins; type: ADME, cell-based; conditions: 0.5 h

Row | Compound | Activity [1] | Activity [2] | Activity (Staphylococcus aureus [3]) | Activity (Escherichia coli [4]) | Activity (Pseudomonas aeruginosa [5]) | Activity (Candida albicans [6]) | Activity (Salmonella typhimurium [7]) | Activity [8] | survival at 25 mg/kg (Pseudomonas aeruginosa [9]) | MIC (Candida albicans [10]) | Activity (Salmonella typhimurium [11]) | Activity (Escherichia coli [12]) | MIC (Staphylococcus aureus [14]) | MIC (Escherichia coli [15]) | Activity [16] | MIC (Salmonella typhimurium [17]) | Activity [18] | MIC (Pseudomonas aeruginosa [19]) | other results
1 | CC(C)C[C@H](NC(=O)[C@H](CO)NC(=O)[C@H](CO)NC(=O)[C@H](CS)NC(=O)[C@@H](N)CO)C(=O)N[C@H](C(=O)N[C@H](C(=O)N[C@@H](CC(C)C)C(=O)N[C@@H](CCCNC(=N)N)C(=O)N1CCC[C@H]1C(=O)N[C@@H](CS)C(=O)NCC(=O)O)[C@@H](C)O)[C@@H](C)O (H-SCSSLTTLRPCG-OH) | inactive | Active | Active | Active | Active | Active | Active | Active |  |  |  |  |  |  |  |  |  |  | 
2 | C[C@@H](O)[C@H]1C(=O)N2C(C(=O)O)=C(S[C@@H]3CN[C@H](C(=O)N(C)C)C3)[C@H](C)[C@H]12 [MEROPENEM] |  |  |  |  |  |  |  |  | 25% |  |  |  |  |  |  |  |  |  | 
3 | H-RLLRPLLQLLKQKLR-OH |  |  |  |  |  |  |  |  |  | 16 µM | inactive | inactive | 4 µM | 8 µM | inactive | 16 µM | inactive | 32 µM | survival at 15 mg/kg (Pseudomonas aeruginosa [13]): 62.5%
4 | H-SQRKLAAKLTSK-OH | Active | Active | inactive | inactive |  | inactive | inactive | inactive |  | > 32 µM | inactive | inactive | > 32 µM | > 32 µM | inactive | > 32 µM | Active | > 32 µM | MIC (Pseudomonas aeruginosa [20]): 32 µM; MIC (Staphylococcus aureus [21]): 4 µM; MIC (Escherichia coli [22]): 8 µM; MIC (Salmonella typhimurium [23]): 16 µM; MIC (Candida albicans [24]): 16 µM; Activity [25]: Active
5 | H-SQRKLAAKLTSKGGGRLLRPLLQLLKQKLR-OH |  |  |  |  |  |  |  |  | 100% | 8 µM | inactive | inactive | 2 µM | 1 µM | inactive | 2 µM | Active | 2 µM | Activity (Pseudomonas aeruginosa [26]): 1.4 log10CFU; Activity (Salmonella typhimurium [27]): inactive; Activity (Mus musculus [28]): 3 log10CFU; Activity (Mus musculus [29]): 3.6 log10CFU; Activity (Pseudomonas aeruginosa [30]): 2.7 log10CFU; Activity (Escherichia coli [31]): 0.6 log10CFU; Activity (Mus musculus [32]): 2.8 log10CFU; Activity (Erythrocyte): Non-Toxic
6 | H-VILTGPEAEYFW-OH |  |  |  |  | inactive |  |  |  |  |  |  |  |  |  |  |  |  |  | 
